Patent US7179645B2 (priority 2002, dated 2007)
Where a SMILES comes first, the peptide text is derived from it. [ ]: non-standard residue; d: D form. The star is where a group is joined. Nle = CCCC[C@H](N)C(=O)O; Cbz = O=C(OCc1ccccc1)*; ava = not defined here

Assays:
[1] = tested on: orthopoxviruses, including variola; details: cited from earlier work
[2] = tested on: primary mouse macrophages and macrophage-like cell lines; details: cited from earlier work
[3] = tested on: SKOV3.A2; details: cited from earlier work
[4] = tested on: early stage breast cancer patients; details: in vivo; cited from earlier work
[5] = tested on: C3H/HeJ mice (H-2^k); antibodies against the PGCC(95–104) epitope peptide; details: mouse, in vivo
[6] = tested on: C3H/HeJ(H-2^k) mice; splenic T cells; format: in vivo, mouse; details: for IFN-γ/Th-1 responses to the HIV gp160(843–855) epitope (ELISPOT): C3H/HeJ mice, 40 nmole, boosts day 13 and 31, spleens day 35
Description: An ELISPOT assay for IFN-γ cytokine responses was performed in order to titer more exactly splenic T lymphocyte subset responses to immunization with Ii-Key-ava-gp160(843–855) or gp160(843–855). The assay was performed as follows. A solution of the cytokine-specific capture antibody (100 μl at 6 μg/ml in phosphate-buffered saline solution, pH 7.2) was added to each well of a 96-well Immunospot plate (M200) for an overnight incubation at 4° C. After aspiration, phosphate-buffer saline solution 200 μl containing 10% fetal bovine serum and 1% penicillin-streptomycin-glutamine (mouse medium) was added to each well for 2 hr at RT. After washing four times with 1% Tween-20 in phosphate-buffered saline solution (wash buffer I), 100 μl of single cell suspensions from the spleens of immunized mice at 10^6 cells/well were re-stimulated with 100 μl of peptide-epitope at 5 μg/well in mouse medium and incubated for 20–40 hr at 37° C., 5% CO2. After washing twice with phosphate-buffered saline solution (wash buffer II) and four times with wash buffer 1,100 μl of 2 μg/ml biotinylated anti-mouse IFN-γ in 1× phosphate buffer saline with 10% fetal bovine serum (dilution buffer) was added to each well for 2 hr at RT. After washing five times with wash buffer 1,100 μl of streptavidin-horse radish peroxidase conjugate (1:500) in dilution buffer was added to each well for 1 hr at RT. After washing four times with wash buffer I and two times with wash buffer II, 100 μl of the 3-amino-9-ethylcarbazole/H2O2 substrate (Pharmingen 551951) was added and incubated for 30–60 min in the dark at RT. The reaction was stopped by washing three times with 200 μl of deionized water. ELISPOT data analysis was performed by using the Immunospot 1.7e software (Cellular Limited Technology). Digitized images of quadruplicate wells were analyzed for the presence of spots in which color density exceeds background based on comparison of control cells (naive splenocytes) and experimental cells (splenocytes of immunized mice) cells. Additional counting parameters for spot size and circularity were applied to gate out speckles caused by non-specific antibody binding. Each spot represents a single cell secreting IFN-γ.
C3H/HeJ(H-2^k) mice were immunized with 40 nmole of peptides (50 μl) emulsified with equal volume of incomplete Freund's adjuvant (IFA), subcutaneously at the base of the tail. On day 13 the mice were boosted subcutaneously at the base of the tail with 40 nmole of peptides (50 μl) emulsified with equal amount of incomplete Freund's adjuvant (IFA). On day 31, the mice were boosted intravenously with 40 nmole peptides dissolved in 100 μl Hank's balanced salts solution (HBSS). […]

[7] = tested on: B10.A (5R) mice; antibodies against the HIV gp160(843–855) peptide; format: in vivo, mouse; details: peptides in saline solution; for Antibody induction (ELISA), Dilution^−1 20: serum day 35, against HIV gp160(843–855) peptide, serum dilution^−1 20; for Antibody induction (ELISA), Dilution^−1 60: serum day 35, serum dilution^−1 60; for Antibody induction (ELISA), Dilution^−1 180: serum day 35, serum dilution^−1 180; for Antibody induction (ELISA), Dilution^−1 540: serum day 35, serum dilution^−1 540
Description: An ELISA assay for antibody responses following immunization with the experimental peptides indicated above was performed as follows. Fifty microliters (μl) of a solution of the coating peptide at 2 μg/well in 0.1 M carbonate buffer, pH 9.5 was added to each well of a 96-well Nunc-immunoplate (#442404) for an overnight incubation at 4° C. After aspiration, 250 μl of phosphate-buffer saline solution containing 3% fetal bovine serum (assay diluent) was added to each well for 2 hr at RT. After washing three times with assay diluent, 50 μl of 20-times diluted mouse serum in 1:3 serial dilution in assay diluent was added to each well for 2 hr at RT. After washing three times with assay diluent, 50 μl of 1 μg/ml biotinylated goat anti-mouse IgG1 or IgG2a was added to each well and incubated for 1 hr at RT. After washing three times with assay diluent, 50 μl of streptavidin-horse radish peroxidase conjugate (1:1000) was added to each well and incubated for 30 min at RT. After washing three times with assay diluent, 100 μl of tetramethylbenzidine/H2O2 solution (Pharmingen 264 KK) was added to each well for 15 min in the dark at room temperature. The reaction was stopped with 100 μl 1N H2SO4 in each well and the absorbance was read immediately at 450 nm.
B10.A (5R) mice (H-2) were immunized with 20 nmole of peptides in 50 μl phosphate-buffered saline solution, intramuscularly in right and left rear legs on days 1 and 2, respectively. On day 14 the mice were boosted intramuscularly with 40 nmole of peptides in 200 μl Hank's balanced salts solution intramuscularly in a rear leg. On day 30 the mice were boosted intravenously with 40 nmole peptides dissolved in Hank's balanced salts solution (HBSS). On day 35 the mice were sacrificed and serum samples were assayed for antibody titers against the HIV gp160(843–855) peptide.

[8] = tested on: tumor cells expressing HLA-A24 and CEA; details: cited from earlier work
[9] = tested on: lymphocytes from HLA-B7+ normal blood donors; details: cited from earlier work
[10] = tested on: mice in an ovalbumin-induced asthmatic response; details: mouse, in vivo; cited from earlier work
[11] = tested on: HLA alleles of the A2 supertype (A2.2, A2.3, A2.6 and A6802); details: cited from earlier work
[12] = tested on: MBP-specific autoantibodies in the CSF; details: human, in vivo; cited from earlier work
[13] = tested on: patients with resected melanoma; details: human, in vivo; cited from earlier work
[14] = tested on: B10(A) 5R mice; splenic CD3+/CD4+ T-helper cells; format: in vivo, mouse; details: splenic cells day 26, double color FACS
Text: To test the mechanism for the much greater immunogenecity of Ii-Key/epitope hybrids epitope peptides, B10(A) 5R mice were immunized with 10 nmole of either gp160(843–855) peptide or Ii-Key/gp160(843–855) in CFA subcutaneously at the right side of the base of the tail. On day 10 the mice were boosted with 40 nmole of hybrid peptide or epitope peptide in saline by intravenous injection. On day 26 mice were sacrificed and splenic cells were obtained. 1×10^6 splenic mononuclear cells were stimulated overnight in the presence of 10 units of recombinant IL-2 and indicated peptides (10 μg/ml). During the last 3 hours of incubation, 2 μM monensin (Golgi-stop, Pharmingen) was added to the cultures, and cells were then stained for both cellular surface markers and intracellular IFN-γ. The FACS assay to quantify antigen specific Th1 helper cell responses was performed as follows. The cells were incubated with 1 μg […] (FC/block, Pharmingen) per 10^6 cells in 100 μl of staining buffer (Dulbecco's phosphate-buffered saline solution without magnesium or calcium). Those cells were stained at 10^6 cells/100 μl with either rat-anti-mouse CD3 or CD4 monoclonal antibodies for 30 min at 4° C. After washing, the cells were re-suspended, fixed with 4% formaldehyde, and permeablized with 0.5% saponin for 20 min at 4° C. The cells were suspended in staining buffer with 0.5% saponin, and stained with the appropriate anti-cytokine or isotype control antibody (IFN-γ, XMG1.2, Pharmingen or IFN-γ isotype control, R3–34, Pharmingen). The cells were incubated for 30 min at 4° C. in the dark, washed and fixed for 10 min with 0.3% formaldehyde in 0.5% saponins in staining buffer for flow cytometric analysis. Flow cytometric analysis was performed as follows. First, CD3^+ cells were gated using dual color dot plot of side scatter versus CD3 FITC as the T-gate population. The CD3^+ cells were then analyzed for CD4 expression to target the CD3^+/CD4^+ T-helper cell population. […]

[15] = IFN-γ ELISPOT, C3H/HeJ(H-2^k) mice, spleens day 35, re-stimulated with HIV gp160(843–855) peptide

For `Nc1ccn(C[C@@H](CO)OCP(=O)(O)O)c(=O)n1` [Cidofivir], the activity against orthopoxviruses [1] is given as “shows activity”.

For `CC(C)C[C@@H](C=O)NC(=O)[C@H](CC(C)C)NC(=O)[C@H](CC(C)C)NC(=O)OCc1ccccc1` [MG132] (Cbz-Leu-Leu-Leu-aldehyde), the LeTx cytotoxicity [2] is given as “efficiently block”.

In the case of `CCCC[C@@H](C=O)NC(=O)[C@H](CC(C)C)NC(=O)[C@H](CC(C)C)NC(C)=O` [acetyl-Leu-Leu-norleucinal] (Ac-Leu-Leu-[Nle]-aldehyde), the “presentation of the CTL epitope Her-2/neu(369–377)” value [3] is listed as “inhibited”.

For `CC(=O)N[C@@H](CSC(=O)[C@]1([C@@H](O)C(C)C)NC(=O)[C@H](C)[C@@H]1O)C(=O)O` [lactacystin], the LeTx cytotoxicity [2] is given as “efficiently block”.

For `CC/C(=C(\c1ccccc1)c1ccc(OCCN(C)C)cc1)c1ccccc1` [tamoxifen], the overall survival [4] is given as “benefited overall survival” and the survival [4] is given as “did not improve survival”.

With “Ac-IAYLKQATAK-NH2 [PGCC, reference compound]” the “Antibody induction (ELISA), Dilution^−1 1620” value [5] was −0.003 and the “Antibody induction (ELISA), Dilution^−1 4860” value [5] was 0.003.

In the case of Ac-LRMK-AYRAIRHIPR-NH2 [gp160(843–855)], the “IFN-γ/Th-1 responses to the HIV gp160(843–855) epitope (ELISPOT)” value [6] is reported as “IFN-γ/Th-1 responses were elicited”.

For “Ac-LRMK-ava-YRAIRHIPR-NH2 [Ii-Key/one-ava/gp160(844–855)]”, the “IFN-γ/Th-1 responses to the HIV gp160(843–855) epitope (ELISPOT)” value [6] was “IFN-γ/Th-1 responses were elicited”.

For Gp160 (843–855) (LRMKAYRAIRHIPR), the “Antibody induction (ELISA), Dilution^−1 20” value [7] was 0.052, the “Antibody induction (ELISA), Dilution^−1 60” value [7] was 0.023 and the “Antibody induction (ELISA), Dilution^−1 180” value [7] was 0.000. The “Antibody induction (ELISA), Dilution^−1 540” value [7] was −0.005.

For HLFYSWYK [9.5.6], the “elicitation of CTL lines lysing tumor cells expressing HLA-A24 and CEA” value [8] is given as “elicited CTL lines that lysed tumor cells”.

For IPQQHTQVL [CEA9(632)], the “primary CTL responses” value [9] is given as “induced primary CTL responses”.

In the case of ISQAVHAAHAEINAAGR [336E-A], the “airway eosinophilia and OVA-specific IL-4 and IL-5 production” value [10] is given as “significant decrease”.

In the case of “Ii-Key/one-ava/gp160 (843–855) (Ac-LRMK[ava]AYRAIRHIPR-NH2; reading uncertain)”, the “Antibody induction (ELISA), Dilution^−1 20” value [7] is reported as 0.600, the “Antibody induction (ELISA), Dilution^−1 60” value [7] is reported as 0.157 and the “Antibody induction (ELISA), Dilution^−1 180” value [7] is reported as 0.073. The “Antibody induction (ELISA), Dilution^−1 540” value [7] was 0.024.

For “Ii-Key/two-ava/gp160 (843–855) (Ac-LRMK[ava][ava]AYRAIRHIPR-NH2; reading uncertain)”, the “Antibody induction (ELISA), Dilution^−1 20” value [7] was 0.131, the “Antibody induction (ELISA), Dilution^−1 60” value [7] was 0.039 and the “Antibody induction (ELISA), Dilution^−1 180” value [7] was 0.027. For the same compound, the “Antibody induction (ELISA), Dilution^−1 540” value [7] was 0.003.

For LMTFWNPPV [9.5.2], the “binding to other common HLA alleles of the A2 supertype” value [11] is listed as “bound tightly” and the “anti-tumor CTL responses” value [8] is listed as “induced vigorous anti-tumor CTL responses”.

In the case of “P85VVHFFKNIVTP96 (PVVHFFKNIVTP; listed as Homo sapiens)”, the “neurological or systemic side effects” value [12] is given as “No neurological or systemic side effects were observed” and the “tolerance to MBP” value [12] is given as “induced tolerance”.

For QYSWFVNGTF [9.5.4], the “elicitation of CTL lines lysing tumor cells expressing HLA-A24 and CEA” value [8] is listed as “elicited CTL lines that lysed tumor cells”.

In the case of YMDGTMSQV [tyrosinase(368–376)(370D)], the “patients developing a positive skin test response” value [13] is given as “none”.

For gp160 (843–855) (LRMKAYRAIRHIPR), the “Percentage of cells CD3^+/IFN-γ^+” value [14] was 2.05%, the “Percentage of cells CD4^+” value [14] was 31.03% and the “Percentage of cells CD4^+/IFN-γ^+” value [14] was 0.94%. The “Number (mean number of spots and standard deviation in triplicate wells)” value [6, 15] was 5 (+/−3.6) and the “Size (mean spot size and standard deviation)” value [6, 15] was 0.019 (+/−0.01) mm^2.
